The record followed here is ChEMBL document CHEMBL1201862, “PubChem BioAssay data set” (2004).

Each structure is given as a SMILES string.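 Tested at 5 concentrations; 48 h exposure; 96-well plates; endpoints linearly interpolated, else capped at highest concentration. GI50 = concentration required for 50% inhibition of growth.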 Calls of active or inactive are those of the source. Cut-off read from the data, not from the text of the source: active = GI50 up to about 1.1 µM and inactive = higher.

Assay in all cases: inhibition of tumour cell growth, NCI panel, 48 h
Experiment [1] deals with A498.
The subject of experiment [2] is CCRF-CEM.
In experiment [3] the test system is DU-145.
Experiment [4] has as its system HCT-116.
Experiment [5] relates to HOP-62.
Experiment [6] relates to LOX IMVI.
Experiment [7] concerns M14.
Experiment [8] relates to Malme-3M.
The subject of experiment [9] is NCI-H226.
Experiment [10] has as its system NCI-H460.
Experiment [11] concerns OVCAR-3.
Experiment [12] deals with OVCAR-8.
The subject of experiment [13] is PC-3.
In experiment [14] the test system is SK-MEL-5.
For experiment [15], the system named is SN12C.
In experiment [16] the test system is SNB-19.
Experiment [17] concerns TK-10.
Experiment [18] deals with U-251.
Experiment [19] relates to UACC-257.
Experiment [20] deals with MOLT-4.

As for `O=C(Nc1cccc2ccccc12)c1ccccc1`, the GI50 in experiment [1] was > 100 µM (inactive); in experiment [2] it was 27.1 µM (inactive); in [3], > 100 µM (inactive); in experiment [4], > 100 µM (inactive); in experiment [5] it was 81.3 µM (inactive); in experiment [6], > 100 µM (inactive). In addition, the GI50 was > 100 µM (inactive) in [7]; 88.3 µM (inactive) in experiment [8]; > 100 µM (inactive) in [9]; > 100 µM (inactive) in experiment [10]; 11.8 µM (inactive) in experiment [11]; > 100 µM (inactive) in [12]. Further, the GI50 in [13] is 72.3 µM (inactive); in [14] it was 53.5 µM (inactive); in experiment [15], > 100 µM (inactive); in experiment [16], > 100 µM (inactive); in experiment [17], > 100 µM (inactive); in experiment [18] it was > 100 µM (inactive). Moreover, the GI50 in [19] is > 100 µM (inactive).

With `OCC(O)C1OC2CC1Nc1ccccc1N2` (configuration not stated), the GI50 is 8.85 µM (inactive) in [1]; 78.2 µM (inactive) in experiment [2]; > 100 µM (inactive) in experiment [3]; > 100 µM (inactive) in experiment [4]; > 100 µM (inactive) in experiment [5]; > 100 µM (inactive) in experiment [6]. Moreover, the GI50 in experiment [20], in experiment [8], in [9], in experiment [10], in experiment [11] and in [12] was > 100 µM (inactive) in each case. For the same molecule, the GI50 in experiment [13], in experiment [14], in experiment [15], in [16], in experiment [17] and in experiment [18] was > 100 µM (inactive) throughout. For the same molecule, the GI50 in experiment [19] is > 100 µM (inactive).

For the molecule `CN1CCN(C2CC(=O)c3c(Cl)sc(Cl)c32)CC1` (configuration not stated), the GI50 in [1] was 43.2 µM (inactive); in [2], 3.45 µM (inactive); in experiment [3], 12.6 µM (inactive); in experiment [4], 6.92 µM (inactive); in experiment [5] it was 19 µM (inactive); in [6], 1.8 µM (inactive). For the same molecule, the GI50 in experiment [7] is 6.82 µM (inactive); in experiment [20], 5.48 µM (inactive); in [8], 23.9 µM (inactive); in [9], > 42.8 µM (inactive); in experiment [10] it was 30.6 µM (inactive); in experiment [11], 16.3 µM (inactive). Moreover, the GI50 in [12] is 7.66 µM (inactive); in [13], 29.4 µM (inactive); in experiment [14] it was 30.1 µM (inactive); in experiment [15], 13.2 µM (inactive); in experiment [16] it was 30.7 µM (inactive); in [17] it was 29 µM (inactive). Also, the values for the GI50 in experiment [18] and in [19] were 11.3 µM (inactive) and 27.1 µM (inactive), respectively.

With `CCc1ccc2c(c1)/C(=C1/Nc3ccccc3/C1=N/O)C(=O)N2`, the GI50 in [1] was 4.03 µM (inactive); in experiment [2] it was 3.21 µM (inactive); in experiment [3] it was 6.49 µM (inactive); in experiment [4] it was 3.27 µM (inactive); in [5], 10.6 µM (inactive); in [6], 6.76 µM (inactive). Also, the GI50 was 12.6 µM (inactive) in experiment [7]; 4.3 µM (inactive) in experiment [20]; 3.72 µM (inactive) in experiment [8]; 12 µM (inactive) in experiment [9]; 5.11 µM (inactive) in experiment [10]; 3.4 µM (inactive) in [11]. In addition, the GI50 in [12] was 6.55 µM (inactive); in [13], 6.85 µM (inactive); in experiment [14] it was 3.7 µM (inactive); in experiment [15], 5.61 µM (inactive); in experiment [16], 14.7 µM (inactive); in experiment [17], 11.5 µM (inactive). In addition, the GI50 in [18] is 9.31 µM (inactive); in experiment [19], 15.2 µM (inactive).

For `CCOC(=O)NC(Nc1ccc(S(=O)(=O)Nc2nc(C)cc(C)n2)cc1)(C(=O)OCC)C(F)(F)F` (configuration not stated), the GI50 in experiment [1], in [2], in [3], in experiment [4], in experiment [5] and in experiment [6] was > 100 µM (inactive) each time. The GI50 in experiment [7], in [20], in experiment [8], in [9], in experiment [10] and in experiment [11] was > 100 µM (inactive) in each case. For the same molecule, the GI50 in experiment [12] is > 100 µM (inactive); in experiment [13], > 100 µM (inactive); in [14], > 100 µM (inactive); in [15], > 100 µM (inactive); in [16], > 100 µM (inactive); in experiment [17], 72.9 µM (inactive). The GI50 in experiment [18] is > 100 µM (inactive).

`C=C1CC(C)(c2cccc(Nc3nc4ccccc4c4occc34)c2)OC1=O` (configuration not stated): the GI50 in [1] was 17.7 µM (inactive); in [2], 2.07 µM (inactive); in experiment [3] it was 5.6 µM (inactive); in experiment [4], 1.67 µM (inactive); in experiment [5], 12.2 µM (inactive); in [6], 1.99 µM (inactive). Further, the GI50 in experiment [7] was 2.84 µM (inactive); in experiment [20], 10.6 µM (inactive); in experiment [8], 17.6 µM (inactive); in experiment [9], 1.5 µM (inactive); in experiment [10] it was 15.6 µM (inactive); in experiment [11], 4.8 µM (inactive). Also, the GI50 in [12] was 6.08 µM (inactive); in experiment [13], 5.52 µM (inactive); in experiment [14], 15.1 µM (inactive); in [15], 2.83 µM (inactive); in experiment [16] it was 17.2 µM (inactive); in experiment [17], 3.56 µM (inactive). Also, the GI50 in [18] is 10 µM (inactive); in experiment [19], 0.0218 µM (active).

Turning to `CCCCNc1nc(NC2OCC(OC(C)=O)C(OC(C)=O)C2OC(C)=O)c(N=O)c(=O)n1C` (configuration not stated), the GI50 in [1], in experiment [2], in experiment [3], in experiment [4], in experiment [5] and in experiment [6] was > 10 µM (inactive) in each case. In addition, the GI50 in [7], in experiment [20], in experiment [8], in experiment [9], in experiment [10] and in experiment [11] was > 10 µM (inactive) in each case. Moreover, the GI50 in [12], in experiment [13], in [14], in experiment [15], in experiment [16] and in experiment [17] was > 10 µM (inactive) in each case. Besides, the GI50 in experiment [18] and in experiment [19] was > 10 µM (inactive) each time.

In the case of `N=C(N)SCCON1C(=O)c2ccccc2C1=O`, the GI50 in [1], in experiment [2], in experiment [3], in experiment [4], in experiment [5] and in experiment [6] was > 100 µM (inactive) in each case. In addition, the GI50 in experiment [7], in experiment [20], in [8], in experiment [9], in [10] and in experiment [11] was > 100 µM (inactive) each time. Further, the GI50 in experiment [12], in [13], in experiment [14], in [15], in experiment [16] and in [17] was > 100 µM (inactive) in each case. For the same molecule, the GI50 in experiment [18] and in [19] was > 100 µM (inactive) in each case.

`CC1=C(OC2OC(CO)C(O)C(O)C2O)C(=O)C[C@H]2C1=CC[C@@H]1[C@@]2(C)C(=O)C[C@]2(C)[C@@H]([C@@](C)(O)C(=O)CCC(C)(C)O)[C@H](O)C[C@@]12C` (some centres not stated): the GI50 in experiment [1], in experiment [2], in experiment [3], in [4], in experiment [5] and in experiment [6] was > 100 µM (inactive) each time. Further, the GI50 in [7], in [20], in experiment [8], in experiment [9], in experiment [10] and in [11] was > 100 µM (inactive) throughout. Also, the GI50 in experiment [12], in [13], in [14], in experiment [15], in experiment [16] and in experiment [17] was > 100 µM (inactive) each time. Also, the GI50 in experiment [18] and in experiment [19] was > 100 µM (inactive) throughout.

Take `Cc1ccc2nc(Cl)c(/C=N/N3C(=O)/C(=C/Cc4ccco4)N=C3c3ccccc3)cc2c1`: the GI50 in [1] is 5.06 µM (inactive); in [2], > 100 µM (inactive); in experiment [3], 36.6 µM (inactive); in [4], 18.5 µM (inactive); in [5], 62.2 µM (inactive); in experiment [6] it was 27.4 µM (inactive). Moreover, the GI50 in experiment [7] was 27.7 µM (inactive); in experiment [20], 58.6 µM (inactive); in experiment [8], 63.5 µM (inactive); in [9], > 54.6 µM (inactive); in [10] it was 26.4 µM (inactive); in [11], 71.1 µM (inactive). Besides, the GI50 in [12] was 34.4 µM (inactive); in [13], 61.4 µM (inactive); in experiment [14], 56.4 µM (inactive); in experiment [15] it was 26.5 µM (inactive); in experiment [16] it was 35.8 µM (inactive); in experiment [17], 18.4 µM (inactive). For the same molecule, the GI50 in experiment [18] is 50.8 µM (inactive); in [19] it was 32.7 µM (inactive).
